Results taken from patent US11241436B2, “Autophagy inducers for treatment of CNS conditions” (Northwestern University, priority 2017, dated 2022).

Experiments:
[1] = test system: Hela cells stably expressing GFP-LC3; test: GFP-LC3 puncta in Hela cells stably expressing GFP-LC3, with or without bafilomycin A1; type: cell-based; settings: for numbers of GFP-LC3 puncta (autophagosomes): Hela cells, normal medium, compared with starvation; for accumulation of GFP-LC3 puncta, LC3-II and p62 (autophagic flux): co-treated with lysosomal inhibitor bafilomycin A1, compared to normal conditions
Text: Results represent mean±s.e.m. Statistics are comparing the indicated value with or without BafA 1 to the one under the normal condition.
Accordingly, an important translational question is how to reduce Beclin 2 activity to maintain CB sensitivity and prevent drug tolerance induced by repeated cannabinoid exposure. To avoid the technical difficulty and risk of directly deleting Beclin 2 in vivo (such as injecting shRNAs or CRISPR/Cas9 constructs), which may disrupt Beclin 2-regulated autophagy, a novel and more convenient strategy to achieve the same goal via modulating the Beclin 2 interactome was developed and tested, which will not affect the essential autophagy function of Beclin 2 (FIG. 6A). Beclin 2 is present in two distinct protein complex pools, the Beclin 2-class Ill phosphatidylinositol 3-kinase complex for autophagy, and the Beclin 2-GASP1-GPCR complex in which Beclin 2-GASP1 binding is required for GPCR degradation. Thus, it was hypothesized that Beclin 2 is a limiting factor that regulates the balance between the two lysosomal degradation pathways, and that competitive recruitment of Beclin 2 to the autophagy machinery by activating autophagy prevents it from functioning in CB1R downregulation and thus restores CB1R functionality and reverses drug tolerance. To test this hypothesis, whether autophagy activation by brain-penetrable inducers inhibits the Beclin 2-GASP1 interaction was first examined. […] To determine autophagy activation by the two compounds, several markers of autophagy induction were analyzed, including formation of autophagosomes in cells and transgenic mice expressing GFP-tagged LC3 (an autophagosome marker), degradation of p62 (an autophagy substrate protein), and conversion of LC3 from the non-lipidated form (LC3-1) to the autophagosome-associated lipidated form (LC3-11). […]
To determine autophagy activation by the 2 compounds ML246 and Rg2, several markers of autophagy induction were analyzed, including formation of autophagosomes in cells and transgenic mice expressing GFP-tagged MAP1LC3/LC3 (microtubule-associated protein 1 light chain 3; an autophagosome marker), degradation of SQSTM1/p62 (sequestosome 1; an autophagy receptor and substrate protein), and conversion of LC3 from the non-lipidated form (LC3-I) to the phagophore- and autophagosome-associated lipidated form (LC3-II). […]

LC3 and p62/SQSTM1 = test: Western blot detection of LC3 and p62/SQSTM1 in mouse tissues; type: in vivo; settings: for LC3-II conversion / levels of p62 (SQSTM1): mouse brain
Protocol: WAT, white adipose tissue; BAT, brown adipose tissue.
Autophagy analyses. For assessment of autophagy in vivo, 8-week old male WT and Becn 1FA/FA mice crossed to GFP-LC3 mice were exercised for 90 minutes, or starved for 48 h, and then anaesthetized by isoflurane and perfused with 4% PFA Brain and muscle samples were fixed in 4% PFA overnight, 15% sucrose for 4 h and 30% sucrose overnight before frozen sections were prepared. The number of GFP-LC3 puncta per unit area of tissue was quantified by fluorescence microscopy. Autophagy in vivo was also analyzed by western blot analysis of brain tissue extracts with antibodies against LC3 and p62/SQSTM1 (see below for details).
Western blot analyses. Cell or mouse muscle and brain extracts were prepared in lysis buffer containing 50 mM Tris (pH 7.4), 150 mM NaCl, 1 mM EDTA, 1% Triton X-100, halt proteinase inhibitor cocktail (ThermoFisher Scientific) and halt phosphatase inhibitor cocktail (ThermoFisher Scientific), and subjected to western blot analysis with anti-LC3 (Novus Biologicals, NB100-2220), anti-SQSTM 1 (Abnova, H00008878-M01), anti-Af342 (Invitrogen; 700254), anti-APP (Biolegend; 803001), HRP-conjugated GFP antibody (Santa Cruz Biotechnology, sc9996), anti-HA (Cell Signaling Technology, C29F4), anti-ATG7 (Sigma Aldrich; A2856), anti-LDLR (Abeam, ab52818), anti-LRP 1 (Abeam, ab92544), and anti-ACTB/f3-actin-HRP (Santa Cruz Biotechnology, sc47778 HRP) antibodies. The band intensity was analyzed using the ImageJ software.

WT mice = test: Analgesic tolerance test during chronic WIN treatment; type: in vivo, mouse; settings: WT mice, co-treatment with daily WIN for 14 d, compared with vehicle
Protocol: Briefly, mice were injected with WIN for 14 d, and analgesic tolerance was measured without WIN treatment on day 0, and after 1-h WIN treatment on day 1 and day 14.
There were no genotype differences either in basal pain sensitivity to infrared heat-generated pain (agonist-free, day 0) (FIG. 2C), or in analgesic effects of acute WIN treatment prior to chronic WIN administration (day 1) (FIG. 2D).

CB1R = test: Brain CB1R (CNR1) level by Western blot after chronic WIN; type: in vivo, mouse; settings: mice concurrently treated with daily WIN for 14 d
Protocol: To investigate whether restoration of CB1R signaling underlies the behavioral regulation by autophagy activation, the level and functionality of CB1R in mouse brain after co-administration of chronic cannabinoids and autophagy inducers were analyzed. […] To determine whether the increased level of CB1R represents CB1R re-sensitization in the brain, the agonist-induced phosphorylation of signaling kinases downstream of CB1R after chronic WIN exposure were analyzed.

HTT aggregates = test: Fluorescence imaging of HTT inclusions in HeLa cells; type: cell-based
Text: Blue, DAPI. Results represent mean±s.e.m. Scale bar: 20 μm. Statistics compare each value to the one under the “-” condition. **, P<0.01; ***, P<0.001; NS, not significant, t test.
ML246 promotes the removal of intracellular aggregates formed by polyglutamine (polyQ)-expansion proteins. HeLa cell lines stably expressing tetracycline-repressible expanded polyQ-repeat protein HTT (huntingtin) was used as a model, HTT65Q and HTT103Q. In contrast to the HTT protein with the normal number of glutamine repeats (HTT25Q), HTT65Q and HTT103Q formed insoluble polyQ aggregates larger than 0.2-μm diameter, which can be detected by filter trap assay. […] Fluorescence imaging further confirmed that ML246 administration decreased the number of cells positive for HTT aggregates, which is also in an ATG7-dependent manner (FIG. S6B).
Accordingly, whether Rg2 affects the clearance of proteinaceous inclusions in vitro was next determined, using HeLa cell lines expressing tetracycline-repressible expanded polyglutamine (polyQ)-repeat protein HTT (huntingtin), HTT65Q and HTT103Q. Unlike the HTT protein with the normal number of glutamine repeats (HTT25Q), HTT65Q and HTT103Q formed insoluble polyQ aggregates larger than 0.2-μm diameter, which were detected by filter trap assays (FIG. 5A).

[2] = Brain penetration / pharmacokinetics study; settings: for brain penetration: mouse, in vivo
[3] = liver, muscle, brain, heart, white and brown adipose tissue

Row | SMILES | numbers of GFP-LC3 puncta (autophagosomes) [1] | accumulation of GFP-LC3 puncta, LC3-II and p62 (autophagic flux) [1] | LC3-II conversion (LC3 and p62/SQSTM1) | levels of p62 (SQSTM1) (LC3 and p62/SQSTM1) | pain-relieving effect of WIN on day 14 (WT mice) | levels of CB1R (CNR1) in the brain (CB1R) | number of cells positive for HTT aggregates (HTT aggregates; ML246) | brain penetration [2] | LC3-I to LC3-II conversion (LC3 and p62/SQSTM1; [3]) | levels of SQSTM1 (LC3 and p62/SQSTM1; [3]) | number of cells positive for HTT aggregates (HTT aggregates; Rg2) | brain level ([2]; 24 h postinjection) | time of peak brain level after injection ([2]; brain)
1 | N=c1c2c(-c3ccccc3)c(-c3ccccc3)n(Cc3ccccc3)c2ncn1[C@H]1CC[C@H](O)CC1 [ML246] | markedly increased | more accumulation | not detect significant changes | decreased | potently rescued | higher levels | decreased | can pass the blood-brain barrier | – | – | – | – | –
2 | CC(C)=CCC[C@](C)(O)[C@H]1CC[C@]2(C)[C@@H]1[C@H](O)C[C@@H]1[C@@]3(C)CC[C@H](O)C(C)(C)[C@@H]3[C@@H](O[C@@H]3O[C@H](CO)[C@@H](O)[C@H](O)[C@H]3O[C@@H]3O[C@@H](C)[C@H](O)[C@@H](O)[C@H]3O)C[C@]12C [Rg2, ginsenoside Rg2] | markedly increased | more accumulation | not detect significant changes | decreased | potently rescued | higher levels | – | able to enter the brain | increased | decreased levels | reduced | still detectable | 15 min
